EC50 data for 22 compounds are collected here from patent US20230069963A1, “PYRAZOLO[1,5-A]PYRIMIDINE MACROCYCLIC COMPOUND” (priority 2018, published 2023).

Where a name gives a salt, the structure may show the parent alone.

In one assay the test system is RSV ATCC VR-1540 (A2). Briefly: microbe, parasite or virus in culture. The class given is cell-based. The conditions noted are these: Hep2 cells, incubated for 4 days, CPE detected with XTT assay (absorbance 450 nm); read-out: EC50 (nmol/L) against RSV A2 strain.
For the compound “(18aS)-2-fluoro-13-(cis-3-hydroxycyclobutyl)-11-methyl-8,9,10,11,19,20,21,22-octahydro-l 8aH,24H-18,15-(metheno)pyrido[2,1-l]pyrimido[6,1-h][1,4,7,9,10,13]benzoxapentaazacyclohexadecine-7,24(6H)-dione [Example 109]”, the EC50 was found to be 1.14 nmol/L.

Staying with this assay, now noted: human respiratory syncytial virus, HEp-2, 96 h; Hep2 cells, incubated for 4 days, CPE detected with XTT assay (absorbance 450 nm); read-out: EC50 (nmol/L) against RSV A2 strain.
Regarding `CN1CCc2cn(nn2)Cc2ccc(Cl)cc2C(=O)N2CCCC[C@H]2c2cc3nc(N4CC(N)C4)cc1n3n2` [Example 330, (19aS)-14-(3-aminoazetidin-1-yl)-2-chloro-12-methyl-11,12,20,21,22,23-hexahydro-10H,19aH-6,9:19,16-di(metheno)pyrido[2,1-m]pyrimido[6,1-i][2,3,4,8,10,11,14]benzoheptaazacycloheptadecin-25(5H)-one], the EC50 was found to be 19.8 nmol/L.

Consider `CC[C@H]1c2cc3nc(OC)c(C)c(n3n2)N(C)CCCCNc2ccc(C)cc2C(=O)N1C` [Example 222a, (17S)-17-ethyl-3-methoxy-4,5,13,16-tetramethyl-5,6,7,8,9,10,16,17-octahydro-15H-18,1-(metheno)pyrimido[6,1-g][1,6,8,9,12]benzopentaazacyclopentadecin-15-one], for which the EC50 worked out at 7.17 nmol/L.

Regarding `CN1CCNC(=O)COc2ccc(C3CC3)cc2C(=O)N2CCCC[C@H]2c2cc3nc(C4CC4)cc1n3n2` [Example 99, (18aS)-2,13-dicyclopropyl-11-methyl-8,9,10,11,19,20,21,22-octahydro-18aH,24H-18,15-(metheno)pyrido[2,1-l]pyrimido[6,1-h][1,4,7,9,10,13]benzoxapentaazacyclohexadecine-7,24(6H)-dione], the EC50 came out at 0.571 nmol/L.

On to `CN1CCOc2ccc(Cl)cc2C(=O)N2CCCC[C@H]2c2cc3nc(N4CC(CN)C4)cc(n3n2)N(C)CC1` [Example 163, (18aS)-13-[3-(aminomethyl)azetidin-1-yl]-2-chloro-8,11-dimethyl-6,7,8,9,10,11,19,20,21,22-decahydro-18aH,24H-18,15-(metheno)pyrido[2,1-l]pyrimido[6,1-h][1,4,7,9,10,13]benzoxapentaazacyclohexadecin-24-one], for which the EC50 is around 10 nmol/L.

In the case of `O=C1COc2ccc(F)cc2C(=O)N2CCCC[C@H]2c2cc3nc(C4CC4)cc(n3n2)CCCN1` [Example 121, (18aS)-13-cyclopropyl-2-fluoro-8,9,10,11,19,20,21,22-octahydro-18aH,24H-18,15-(metheno)pyrido[2,1-l]pyrimido[6,1-h][1,4,9,10,13]benzoxatemazacyclohexadecine-7,24(6H)-dione], the EC50 worked out at 11 nmol/L.

As to `Cc1ccc2c(c1)C(=O)N1CCCC[C@H]1c1cc3nc(N4CCC4)cc(n3n1)N(C)CCN(C)CCO2` [Example 173, (18aS)-13-(azetidin-1-yl)-2,8,11-trimethyl-6,7,8,9,10,11,19,20,21,22-decahydro-18aH,24H-18,15-(metheno)pyrido[2,1-l]pyrimido[6,1-h][1,4,7,9,10,13]benzoxapentaazacyclohexadecin-24-one], the EC50 came out at 1.3 nmol/L.

For `CN1CCNC(=O)COc2ccc(C(C)(F)F)cc2C(=O)N2CCCC[C@H]2c2cc3nc(N4CCC4)cc1n3n2` [Example 54, (18aS)-13-(azetidin-1-yl)-2-(1,1-difluoroethyl)-11-methyl-8,9,10,11,19,20,21,22-octahydro-18aH,24H-18,15-(metheno)pyrido[2,1-l]pyrimido[6,1-h][1,4,7,9,10,13]benzoxapentaazacyclohexadecine-7,24(6H)-dione], the EC50 amounted to 3.2 nmol/L.

For the compound `CN1CCNC(=O)COc2ccc(F)cc2C(=O)N2CCCC[C@H]2c2cc3nc(N4CC(O)C4)cc1n3n2` [Example 3, (18aS)-2-fluoro-13-(3-hydroxyazetidin-1-yl)-J 1-methyl-8,9,10,11,19,20,21,22-octahydro-18aH,24H-18,15-(metheno)pyrido[2,1-l]pyrimido[6,1-h][1,4,7,9,10,13]benzoxapentaazacyclohexadecine-7,24(6H)-dione], the EC50 is around 0.81 nmol/L.

Regarding `CN1CCOc2ccc(Cl)cc2C(=O)N2CCCC[C@H]2c2cc3nc(N4CC(N)C4)cc(n3n2)N(C)CC1` [Example 151, (18aS)-13-(3-aminoazetidin-1-yl)-2-chloro-8,11-dimethyl-6,7,8,9,10,11,19,20,21,22-decahydro-18aH,24H-18,15-(metheno)pyrido[2,1-l]pyrimido[6,1-h][1,4,7,9,10,13]benzoxapentaazacyclohexadecin-24-one], the EC50 was 17 nmol/L.

On to `CN1CCNC(=O)COc2ccc(Cl)cc2C(=O)N2CCCCC2c2cc3nc(N4CC[C@H](N)C4)c(F)c1n3n2` (stereo partly drawn) [Example 87, (18aS)-13-[(3S)-3-aminopyrrolidin-1-yl]-2-chloro-12-fluoro-11-methyl-8,9,10,11,19,20,21,22-octahydro-18aH,24H-18,15-(metheno)pyrido[2,1-l]pyrimido[6,1-h][1,4,7,9,10,13]benzoxapentaazacyclohexadecine-7,24(6H)-dione hydrochloride], for which the EC50 came to 3.77 nmol/L.

For `CN1CCCCOc2cccc(F)c2C(=O)N2CCCCC2c2cc3nc(N4CCC(N)C4)cc1n3n2` [Example 249, (23aS)-18-[(3S)-3-aminopyrrolidin-1-yl]-7-fluoro-16-methyl-1,3,4,13,14,15,16,23a-octahydro-2H,6H,12H-23,20-(metheno)pyrido[2,1-k]pyrimido[6,1-g][1,6,8,9,12]benzoxatectraazacyclopentadecin-6-one], the EC50 is 2.7 nmol/L.

Take `Cc1ccc2c(c1)C(=O)N1CCCC[C@H]1c1cc3nc(N4CC(N)C4)cc(n3n1)N(C)CCN(S(C)(=O)=O)CCO2` [Example 180, (18aS)-13-(3-aminoazetidin-1-yl)-8-(methanesulfonyl)-2,11-dimethyl-6,7,8,9,10,11,19,20,21,22-decahydro-18aH,24H-18,15-(metheno)pyrido[2,1-l]pyrimido[6,1-h][1,4,7,9,10,13]benzoxapentaazacyclohexadecin-24-one]: the EC50 came out at 33 nmol/L.

Consider `CC[C@H]1c2cc3nc(NCC(C)(C)N)cc(n3n2)N(C)CCCCOc2ccc(C)cc2C(=O)N1C` [Example 208, (17S)-3-[(2-amino-2-methylpropyl)amino]-17-ethyl-5,13,16-trimethyl-6,7,8,9,16,17-hexahydro-5H,15H-18,1-(metheno)pyrimido[6,1-g][1,6,8,9,12]benzoxatetraazacyclopentadecin-15-one hydrochloride], for which the EC50 is 4.33 nmol/L.

In the case of `CCc1ccc2c(c1)C(=O)N1CCCC[C@H]1c1cc3nc(OCCN)cc(n3n1)N(C)CCNC(=O)CO2` [Example 50, (18aS)-13-(2-aminoethoxy)-2-ethyl-1-methyl-8,9,10,11,19,20,21,22-octahydro-18aH,24H-18,15-(metheno)pyrido[2,1-l]pyrimido[6,1-h][1,4,7,9,10,13]benzoxapentaazacyclohexadecine-7,24(6H)-dione], the EC50 is 2.18 nmol/L.

Regarding `Cc1ccc2c(c1)C(=O)N1CCCC[C@H]1c1cc3nc(N4CCC4)cc(n3n1)N(C)CCN(S(N)(=O)=O)CCO2` [Example 178, (18aS)-13-(azetidin-1-yl)-2,11-dimethyl-24-oxo-6,7,10,11,19,20,21,22-octahydro-8aH,24H-18,15-(metheno)pyrido[2,1-l]pyrimido[6,1-h][1,4,7,9,10,13]benzoxapentaazacyclohexadecine-8(9H)-sulfonamide], the EC50 is 4.48 nmol/L.

As to `COc1ccc2c(c1)C(=O)N1CCCC[C@H]1c1cc3nc(N4CCC4)cc(n3n1)N(C)CCNC(=O)CO2` [Example 51, (18aS)-13-(azetidin-1-yl)-2-methoxy-11-methyl-8,9,10,11,19,20,21,22-octahydro-18aH,24H-18,15-(metheno)pyrido[2,1-l]pyrimido[6,1-h][1,4,7,9,10,13]benzoxapentaazacyclohexadecine-7,24(6H)-dione], the EC50 was determined as 1.21 nmol/L.

As for `COc1cc2n3nc(cc3n1)[C@@H]1CCCCN1C(=O)c1cc(F)ccc1OCC(=O)NCCN2C` [Example 20, (18aS)-2-fluoro-I 3-methoxy-11-methyl-8,9,10,11,19,20,21,22-octahydro-18aH,24H-18,15-(metheno)pyrido[2,1-l]pyrimido[6,1-h][1,4,7,9,10,13]benzoxapentaazacyclohexadecine-7,24(6H)-dione], the EC50 was found to be 1.26 nmol/L.

As for `CCC1c2cc3nc(N4CC[C@H](N)C4)cc(n3n2)N(C)CCN(S(C)(=O)=O)CCOc2ccc(C)cc2C(=O)N1C` (stereo partly drawn) [Example 195, (18S)-3-[(3S)-3-aminopyrrolidin-1-yl]-18-ethyl-8-(methanesulfonyl)-5,14,17-trimethyl-5,6,7,8,9,10,17,18-octahydro-16H-19,1-(metheno)pyrimido[6,1-h][1,4,7,9,11,13]benzoxapentaazacyclohexadecin-16-one], the EC50 was determined as 20.5 nmol/L.

Regarding `CN1CCOc2ccc(Cl)cc2C(=O)N2CCCC[C@H]2c2cc3nc(NC4CNC4)cc(n3n2)N(C)CC1` [Example 161, (18aS)-13-[(azetidin-3-yl)amino]-2-chloro-8,11-dimethyl-6,7,8,9,10,11,19,20,21,22-decahydro-18aH,24H-18,15-(metheno)pyrido[2,1-l]pyrimido[6,1-h][1,4,7,9,10,13]benzoxapentaazacyclohexadecin-24-one], the EC50 was found to be 19.6 nmol/L.

As to `CCN1CCCS(=O)(=O)Nc2ccc(F)cc2C(=O)N2CCCC[C@H]2c2cc3nc(N4CCC4)cc1n3n2` [Example 318, (23aS)-18-(azetidin-1-yl)-16-ethyl-8-fluoro-1,3,4,13,14,15,16,23a-octahydro-2H,6H-23,20-(metheno)-12λ^6-pyrido[2,1-k]pyrimido[6,1-g][2,1,6,8,9,12]benzothiapentaazacyclopentadecine-6,12,12(11H)-trione], the EC50 turned out to be 22.7 nmol/L.

As to `CNC1CN(c2cc3n4nc(cc4n2)[C@@H]2CCCCN2C(=O)c2cc(F)ccc2OCC(=O)NCCN3C)C1` [Example 5, (18aS)-2-fluoro-11-methyl-13-[3-(methylamino)azetidin-1-yl]-8,9,10,11,19,20,21,22-octahydro-18aH,24H-18,15-(metheno)pyrido[2,1-l]pyrimido[6,1-h][1,4,7,9,10,13]benzoxapentaazacyclohexadecine-7,24(6H)-dione], the EC50 turned out to be 7.02 nmol/L.
